Assay results published in patent publication US7407979B2, “Bioregulatory active ingredient combination” (BASF Aktiengesellschaft, priority 2001, dated 2008).

Tests used:
[1] = tested on: Winter oilseed rape (cv. Pronto); experiment: Shoot elongation in winter oilseed rape (Example 1); assay type: in vivo; settings: treated Oct. 19, 2000; for Stage A1: Reduction / Stage A1: rel. length: rating A1 Oct. 26, 2000; for Stage A2: Reduction / Stage A2: rel. length: rating A2 Nov. 16, 2000
Protocol: The tank mixes employed in Example 1 are prepared by stirring an emulsion concentrate comprising 90 g/l metconazole, of the formula (II), and an aqueous concentrate comprising 600 g/l mepiquat chloride (MQC) using a magnetic stirrer.
Winter oilseed rape (cv. Pronto) was sown in autumn (Sep. 13, 2000) and treated approximately one month later (Oct. 19, 2000) in accordance with the information given in Table 1. A few weeks later, the shoot elongation and the root development were assessed (A1 on Oct. 26, 2000 and A2 on Nov. 16, 2000).

[2] = tested on: Winter oilseed rape (cv. Pronto); experiment: Root growth and morphological parameters in winter oilseed rape (Example 2); assay type: in vivo; settings: based on untreated control; for SPAD: green coloration
Protocol: The formulations employed in Example 2 are prepared by introducing an emulsion concentrate comprising 60 g/l metconazole, of the formula (II), and/or an aqueous concentrate comprising 460 g/l mepiquat chloride in suitable amounts. The combination of mepiquat chloride and metconazole is employed in the form of an aqueous SL readymix comprising 21 g/l metconazole, 300 g/l mepiquat chloride and 610 g/l further formulation auxiliaries.
Winter oilseed rape (cv. Pronto) was sown in autumn (Sep. 13, 2000) and treated approximately one month later (Oct. 19, 2000) in accordance with the information given in Table 2. Some of the plants were harvested in autumn on Dec. 07, 2000, while others were harvested in spring on Apr. 03, 2001 and the following morphological parameters were analyzed: plant length; shoot fresh and dry weight (drying: 24 h at 105° C.); total area of all leaves; SPAP (relative units of green coloration determined using a Minolta chlorophyll-measuring meter SPAP 502); root fresh and dry weight (drying: 24 h at 105° C.); storage root fresh weight; length, surface area and volume of the hair roots, and number of root tips (scanning and WinRhizo determination). The results, each of which is based on the untreated control, are compiled in Table 2, the values for the plants harvested in autumn being shown first and the values for the plants harvested in spring being shown second.

[3] = 400 g/ha, autumn harvest Dec. 07, 2000
[4] = 400 g/ha, spring harvest Apr. 03, 2001
[5] = 28 g/ha, autumn harvest Dec. 07, 2000
[6] = 28 g/ha, spring harvest Apr. 03, 2001
[7] = 84 g/ha, autumn harvest Dec. 07, 2000
[8] = 84 g/ha, spring harvest Apr. 03, 2001

With C[N+]1(C)CCCCC1.[Cl-] [MQC, N,N-dimethylpiperidinium chloride] the “Stage A1: Reduction” value ([1]; 400 g/ha) was 0%, the “Stage A1: rel. length” value ([1]; 400 g/ha) was 100 and the “Stage A2: Reduction” value ([1]; 400 g/ha) was 4%. The “Stage A2: rel. length” value ([1]; 400 g/ha) was 96, the “Hair root surface area” value [2, 3] was 131% and the Hair root volume [2, 3] was 154%. The Leaf surface area [2, 3] was 116%, the “Number of root tips” value [2, 3] was 94% and the Plant height [2, 3] was 96%. The Root hair length [2, 3] was 112%, the Shoot dry weight [2, 3] was 112% and the Shoot fresh weight [2, 3] was 111%. For the same compound, the “Storage root fresh weight” value [2, 3] was 118%, the “Total root dry weight” value [2, 3] was 120% and the “Total root fresh weight” value [2, 3] was 123%. For the same compound, the SPAD [2, 3] was 102; 102, the “Hair root surface area” value [2, 4] was 136% and the Hair root volume [2, 4] was 157%. For the same compound, the Leaf surface area [2, 4] was 103%, the “Number of root tips” value [2, 4] was 123% and the Plant height [2, 4] was 93%. The Root hair length [2, 4] was 123%, the Shoot dry weight [2, 4] was 99% and the Shoot fresh weight [2, 4] was 114%. For the same compound, the “Storage root fresh weight” value [2, 4] was 94%, the “Total root dry weight” value [2, 4] was 107% and the “Total root fresh weight” value [2, 4] was 112%. The SPAD [2, 4] was 102; 102.
CC1(C)CCC(Cc2ccc(Cl)cc2)C1(O)Cn1cncn1 (centres unmarked) [Metconazole, metconazole] was tested, and the “Stage A1: Reduction” value ([1]; 21 g/ha) was 19%, the “Stage A1: rel. length” value ([1]; 21 g/ha) was 81 and the “Stage A2: Reduction” value ([1]; 21 g/ha) was 39%. For the same compound, the “Stage A2: rel. length” value ([1]; 21 g/ha) was 61, the “Hair root surface area” value [2, 5] was 116% and the Hair root volume [2, 5] was 125%. For the same compound, the Leaf surface area [2, 5] was 84%, the “Number of root tips” value [2, 5] was 93% and the Plant height [2, 5] was 61%. The Root hair length [2, 5] was 107%, the Shoot dry weight [2, 5] was 85% and the Shoot fresh weight [2, 5] was 82%. The “Storage root fresh weight” value [2, 5] was 94%, the “Total root dry weight” value [2, 5] was 94% and the “Total root fresh weight” value [2, 5] was 92%. The SPAD [2, 5] was 107, the “Hair root surface area” value [2, 6] was 134% and the Hair root volume [2, 6] was 145%. For the same compound, the Leaf surface area [2, 6] was 106%, the “Number of root tips” value [2, 6] was 112% and the Plant height [2, 6] was 91%. For the same compound, the Root hair length [2, 6] was 126%, the Shoot dry weight [2, 6] was 112% and the Shoot fresh weight [2, 6] was 122%. For the same compound, the “Storage root fresh weight” value [2, 6] was 115%, the “Total root dry weight” value [2, 6] was 128% and the “Total root fresh weight” value [2, 6] was 115%. The SPAD [2, 6] was 103, the “Hair root surface area” value [2, 7] was 97% and the Hair root volume [2, 7] was 101%. The Leaf surface area [2, 7] was 61%, the “Number of root tips” value [2, 7] was 87% and the Plant height [2, 7] was 46%. The Root hair length [2, 7] was 94%, the Shoot dry weight [2, 7] was 67% and the Shoot fresh weight [2, 7] was 57%. For the same compound, the “Storage root fresh weight” value [2, 7] was 74%, the “Total root dry weight” value [2, 7] was 75% and the “Total root fresh weight” value [2, 7] was 78%. The SPAD [2, 7] was 116, the “Hair root surface area” value [2, 8] was 148% and the Hair root volume [2, 8] was 183%. The Leaf surface area [2, 8] was 127%, the “Number of root tips” value [2, 8] was 116% and the Plant height [2, 8] was 86%. The Root hair length [2, 8] was 129%, the Shoot dry weight [2, 8] was 136% and the Shoot fresh weight [2, 8] was 150%. For the same compound, the “Storage root fresh weight” value [2, 8] was 138%, the “Total root dry weight” value [2, 8] was 161% and the “Total root fresh weight” value [2, 8] was 150%. It also gave an SPAD [2, 8] of 104.
